# Experimental data reported in patent publication US20020143040A1, “Heterocyclic aromatic oxazole compounds and use thereof” (priority 1994, published 2002).
# pIC50: −log10 of the molar value. Like-named read-outs stand apart in the source and are kept apart here.
# Columns and labels:
# [1] = biological target: T1, human cyclooxygenase-2 (Homo sapiens, UniProt P35354); assay: Inhibitory action on cyclooxygenase-2 (conversion of 14C arachidonic acid into PGH2); conditions: for COX-1/COX-2: ratio of IC50 COX-1 to IC50 COX-2
# T1 sequence (P35354 18-604): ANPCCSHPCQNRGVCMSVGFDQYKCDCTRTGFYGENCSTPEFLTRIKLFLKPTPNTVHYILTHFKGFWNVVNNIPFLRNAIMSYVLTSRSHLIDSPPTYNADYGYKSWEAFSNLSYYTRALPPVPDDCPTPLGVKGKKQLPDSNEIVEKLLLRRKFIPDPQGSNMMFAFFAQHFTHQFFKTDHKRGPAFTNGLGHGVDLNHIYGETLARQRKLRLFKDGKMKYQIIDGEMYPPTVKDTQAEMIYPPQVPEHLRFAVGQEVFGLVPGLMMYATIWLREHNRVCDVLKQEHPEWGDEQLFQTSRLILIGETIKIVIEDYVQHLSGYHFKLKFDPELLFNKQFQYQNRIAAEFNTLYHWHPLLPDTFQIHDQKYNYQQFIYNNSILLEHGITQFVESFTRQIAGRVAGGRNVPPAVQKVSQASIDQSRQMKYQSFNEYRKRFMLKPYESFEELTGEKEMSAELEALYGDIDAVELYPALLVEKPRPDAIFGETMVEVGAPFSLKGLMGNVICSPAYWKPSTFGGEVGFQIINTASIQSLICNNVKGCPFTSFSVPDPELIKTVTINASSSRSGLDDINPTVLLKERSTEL
# Experimental: The enzymatic activity was determined from the percent conversion of ^14C arachidonic acid into prostaglandin H2 (PGH2) and the decomposed product thereof. That is, a test sample (20 μl), an enzyme solution (20 μl) and distilled water (10 μl) were added to 100 mM Tris-HCl buffer (pH 8, 140 μl) containing hematin (2 μM) and tryptophan (5 mM), and the mixture was thoroughly stirred, which was followed by preincubation at 24° C. for 5 minutes. Then, a ^14C arachidonic acid solution (10 μl) was added and the mixture was reacted at 24° C., whereafter a solution (40 μl) of ethyl ether/methanol/1M citric acid (30/4/1) ice-cooled to −20° C. was added to stop the reaction. The reaction mixture was centrifuged for 5 minutes at 3,000 rpm to give an ether layer which was placed on a thin plate, and developed with ethyl ether/methanol/acetic acid (90/2/0.1) to determine percent conversion (A) from arachidonic acid to PGH2 and the decomposed product thereof.
# An enzyme prepared from human platelets was used as an enzyme solution of cyclooxygenase-1, and an enzyme expressed by a yeast, into which cDNA of human cyclooxygenase-2 had been introduced using a kit of Invitrogen Corp., was used as an enzyme solution of cyclooxygenase-2.
# [2] = biological target: cyclooxygenase-1 prepared from human platelets (Homo sapiens, UniProt P23219); assay: Inhibitory action on cyclooxygenase-1 (conversion of 14C arachidonic acid into PGH2); format: biochemical; conditions: enzyme prepared from human platelets; preincubation 24° C. 5 minutes; read-out: IC50 (μM) COX-1
# cyclooxygenase-1 prepared from human platelets, sequence (P23219 24-599): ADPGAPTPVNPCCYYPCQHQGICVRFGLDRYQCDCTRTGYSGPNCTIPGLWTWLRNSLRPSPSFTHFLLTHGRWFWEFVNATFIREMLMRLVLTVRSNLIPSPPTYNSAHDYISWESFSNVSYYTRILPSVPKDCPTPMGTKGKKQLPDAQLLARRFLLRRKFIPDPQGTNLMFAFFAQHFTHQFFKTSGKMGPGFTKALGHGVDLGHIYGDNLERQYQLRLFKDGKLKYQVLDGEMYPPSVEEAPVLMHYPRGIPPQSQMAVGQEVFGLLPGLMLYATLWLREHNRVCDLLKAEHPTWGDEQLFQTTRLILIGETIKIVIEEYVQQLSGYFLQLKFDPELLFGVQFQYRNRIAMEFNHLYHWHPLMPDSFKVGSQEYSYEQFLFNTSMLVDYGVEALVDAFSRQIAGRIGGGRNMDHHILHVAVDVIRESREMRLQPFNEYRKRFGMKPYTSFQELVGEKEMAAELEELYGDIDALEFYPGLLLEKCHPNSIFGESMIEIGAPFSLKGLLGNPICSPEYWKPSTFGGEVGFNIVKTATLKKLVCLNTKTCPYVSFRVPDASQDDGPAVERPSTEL
# Description: (Inhibitory Action on Cyclooxygenase)
# Inhibition (%)=(1−A/B)×100
# [3] = test system: carrageenin-induced podedema; assay: Effects on carrageenin-induced podedema; format: in vivo, male Donryu rats; conditions: p.o. one hour before carrageenin; limb volume 3 hours after carrageenin; dose inhibiting by 30% relative to control group
# Experimental: (Effects on Carrageenin-induced Podedema)
# Carrageenin (1%, 0.05 ml) dissolved in physiological saline was subcutaneously injected to the left hindlimb of male Donryu rats to induce podedema. The degree of podedema was evaluated by measuring the volume of the limb 3 hours after carrageenin administration. A test compound (1, 3, 10 or 30 mg/kg) was orally administered one hour before carrageenin administration, and suppression thereby was studied. Inhibitory activity was expressed by the dose (ED30) of the test compound necessary for inhibiting by 30% relative to the control group.
smiles,measurement,setting,value
Cc1nc(C2CCCCC2)c(-c2ccc(S(N)(=O)=O)c(Cl)c2)o1 [Example 4],pIC50,[1],< 5.00
"Cc1nc(C2CCCCC2)c(-c2ccc(S(C)(=O)=O)c(F)c2)o1 [Example 3, 4-cyclohexyl-5-(3-fluoro-4-methylsulfonylphenyl)-2-methyloxazole]",COX-1/COX-2,[1],>333
"Cc1nc(C2CCCCC2)c(-c2ccc(S(N)(=O)=O)c(F)c2)o1 [Example 2, 5-(4-aminosulfonyl-3-fluorophenyl)-4-cyclohexyl-2-methyloxazole]",IC50,[2],> 100 µM
same,"carrageenin-induced podedema in rats, ED30 (mg/kg p.o.)",[3],5.5 mg/kg
same,COX-1/COX-2,[1],">1,428"
Cc1nc(C2CCCCC2)c(-c2cc(F)c(S(N)(=O)=O)c(F)c2)o1 [Example 6],COX-1/COX-2,[1],>625
"Cc1nc(-c2ccc(F)cc2)c(-c2ccc(S(N)(=O)=O)cc2)o1 [Control 2, reference compound]",IC50,[2],5 µM
same,IC50,"[1]; read-out: IC50 (μM) COX-2, enzyme expressed by yeast with cDNA of human cyclooxygenase-2, preincubation 24° C. 5 minutes",0.02 µM
"COc1ccc2c(c1)c(CC(=O)O)c(C)n2C(=O)c1ccc(Cl)cc1 [Indomethacin, reference compound]","carrageenin-induced podedema in rats, ED30 (mg/kg p.o.)",[3],2.9 mg/kg
Cc1nc(C2CCCCC2)c(-c2ccc(S(N)(=O)=O)c(C)c2)o1 [Example 5],pIC50,[1],< 5.00
"Cc1nc(-c2ccc(F)cc2)c(-c2ccc(S(N)(=O)=O)c(F)c2)o1 [Example 7, 5-(4-aminosulfonyl-3-fluorophenyl)-4-(4-fluorophenyl)-2-methyloxazole]",COX-1/COX-2,[1],"1,233"
"Cc1nc(C2CCCCC2)c(-c2ccc(S(N)(=O)=O)cc2)o1 [Control 1, reference compound]",COX-1/COX-2,[1],643
